Results as given in ChEMBL document CHEMBL5055650, “4-Acyl Pyrrole Capped HDAC Inhibitors: A New Scaffold for Hybrid Inhibitors of BET Proteins and Histone Deacetylases as Antileukemia Drug Leads” (J Med Chem, 2021).
The source made the active and inactive calls. No cut-off for these calls is given here.

How the values were obtained:
Danio rerio [1] = organism: Danio rerio; test: Toxicity in zebrafish embryos assessed as head necrosis at 0.005 uM after 72 hrs by visual analysis (reference value: 0%); assay type: organism-based; conditions: in vivo
Danio rerio [2] = organism: Danio rerio; test: Toxicity in zebrafish embryos assessed as small eyes at 0.005 uM after 72 hrs by visual analysis (reference value: 10%); assay type: organism-based, Embryo; conditions: in vivo
Danio rerio [3] = test: Toxicity in zebrafish embryos assessed as pericardial edema at 0.05 uM after 72 hrs by visual analysis (reference value: 10%); assay type: organism-based, Embryo; conditions: in vivo
Danio rerio [4] = organism: Danio rerio; test: Toxicity in zebrafish embryos assessed as teratogenesis at 0.005 uM after 72 hrs by visual analysis (reference value: 0%); assay type: organism-based, Embryo; conditions: in vivo
Danio rerio [5] = organism: Danio rerio; test: Toxicity in zebrafish embryos assessed as head necrosis at 0.5 uM after 72 hrs by visual analysis (reference value: 0%); assay type: organism-based; conditions: in vivo
[6] = Nonlethal toxicity in zebrafish embryos assessed as embryo survival at 5 uM after 72 hrs by visual analysis (reference value: 100%); assay type: organism-based, Danio rerio; conditions: in vivo
Danio rerio [7] = organism: Danio rerio; test: Toxicity in zebrafish embryos assessed as brain hemorrhage at 50 uM after 72 hrs by visual analysis (reference value: 0%); assay type: organism-based; conditions: in vivo
Danio rerio [8] = organism: Danio rerio; test: Toxicity in zebrafish embryos assessed as head necrosis at 0.05 uM after 72 hrs by visual analysis (reference value: 0%); assay type: organism-based; conditions: in vivo
Danio rerio [9] = organism: Danio rerio; test: Toxicity in zebrafish embryos assessed as teratogenesis at 0.05 uM after 72 hrs by visual analysis (reference value: 0%); assay type: organism-based, Embryo; conditions: in vivo
Danio rerio [10] = organism: Danio rerio; test: Toxicity in zebrafish embryos assessed as teratogenesis at 0.5 uM after 72 hrs by visual analysis (reference value: 0%); assay type: organism-based, Embryo; conditions: in vivo
Danio rerio [11] = organism: Danio rerio; test: Toxicity in zebrafish embryos assessed as small eyes at 0.05 uM after 72 hrs by visual analysis (reference value: 10%); assay type: organism-based, Embryo; conditions: in vivo
Danio rerio [12] = organism: Danio rerio; test: Toxicity in zebrafish embryos assessed as malformation of tail at 0.05 uM after 72 hrs by visual analysis (reference value: 5%); assay type: organism-based; conditions: in vivo
Danio rerio [13] = organism: Danio rerio; test: Toxicity in zebrafish embryos assessed as teratogenesis at 5 uM after 72 hrs by visual analysis (reference value: 0%); assay type: organism-based, Embryo; conditions: in vivo
Danio rerio [14] = organism: Danio rerio; test: Toxicity in zebrafish embryos assessed as brain hemorrhage at 0.005 uM after 72 hrs by visual analysis (reference value: 0%); assay type: organism-based; conditions: in vivo
Danio rerio [15] = organism: Danio rerio; test: Toxicity in zebrafish embryos assessed as small eyes at 5 uM after 72 hrs by visual analysis (reference value: 10%); assay type: organism-based, Embryo; conditions: in vivo
Danio rerio [16] = organism: Danio rerio; test: Toxicity in zebrafish embryos assessed as tail necrosis at 50 uM after 72 hrs by visual analysis (reference value: 0%); assay type: organism-based; conditions: in vivo
Danio rerio [17] = organism: Danio rerio; test: Toxicity in zebrafish embryos assessed as tail necrosis at 5 uM after 72 hrs by visual analysis (reference value: 0%); assay type: organism-based; conditions: in vivo
Danio rerio [18] = test: Toxicity in zebrafish embryos assessed as pericardial edema at 50 uM after 72 hrs by visual analysis (reference value: 10%); assay type: organism-based, Embryo; conditions: in vivo
Danio rerio [19] = test: Toxicity in zebrafish embryos assessed as yolk sac edema at 0.5 uM after 72 hrs by visual analysis (reference value: 0%); assay type: organism-based, Embryo; conditions: in vivo
[20] = Nonlethal toxicity in zebrafish embryos assessed as embryo survival at 0.005 uM after 72 hrs by visual analysis (reference value: 100%); assay type: organism-based, Danio rerio; conditions: in vivo
Danio rerio [21] = organism: Danio rerio; test: Toxicity in zebrafish embryos assessed as tail necrosis at 0.005 uM after 72 hrs by visual analysis (reference value: 0%); assay type: organism-based; conditions: in vivo
[22] = Nonlethal toxicity in zebrafish embryos assessed as embryo survival at 0.05 uM after 72 hrs by visual analysis (reference value: 100%); assay type: organism-based, Danio rerio; conditions: in vivo
Danio rerio [23] = test: Toxicity in zebrafish embryos assessed as pericardial edema at 0.005 uM after 72 hrs by visual analysis (reference value: 10%); assay type: organism-based, Embryo; conditions: in vivo
Danio rerio [24] = organism: Danio rerio; test: Toxicity in zebrafish embryos assessed as small eyes at 0.5 uM after 72 hrs by visual analysis (reference value: 10%); assay type: organism-based, Embryo; conditions: in vivo
K562 = test: Induction of apoptosis in human K562 cells assessed as apoptosis at 2.9 uM after 24 to 72 hrs using annexin V/PI followed by flow cytometry; assay type: functional, cell-based; conditions: time 24-72 hrs

`Cc1[nH]c(C(=O)Nc2cc(S(=O)(=O)N3CCOCC3)ccc2OCCCCCCCC(=O)NO)c2c1C(=O)CCCC2` showed an Activity (Danio rerio [1]) of 15%, an Activity (Danio rerio [2]) of 10% and an Activity (Danio rerio [3]) of 10%. For the same molecule, the Activity (Danio rerio [4]) was 15%, the Activity (Danio rerio [5]) was 15% and the survival at 72 h, 5 µM [6] was 95%. For the same molecule, the Activity (Danio rerio [7]) was 0%, the Activity (Danio rerio [8]) was 0% and the Activity (Danio rerio [9]) was 10%. It also gave an Activity (Danio rerio [10]) of 15%, an Activity (Danio rerio [11]) of 5% and an Activity (Danio rerio [12]) of 0%. For the same molecule, the Activity (Danio rerio [13]) was 15%, the Activity (Danio rerio [14]) was 0% and the Activity (Danio rerio [15]) was 5%. For the same molecule, the Activity (Danio rerio [16]) was 15%, the Activity (Danio rerio [17]) was 0% and the Activity (Danio rerio [18]) was 15%. It also gave an Activity (Danio rerio [19]) of 15%, a survival at 72 h, 0.005 µM [20] of 100% and an Activity (Danio rerio [21]) of 15%. The survival at 72 h, 0.05 µM [22] was 95%, the Activity (Danio rerio [23]) was 15% and the Activity (Danio rerio [24]) was 15%.

With `COc1ccc(S(=O)(=O)n2ccc(/C=C/C(=O)NO)c2)cc1NC(=O)c1[nH]c(C)c2c1CCCCC2=O` the Activity (K562) was “Active”.
